Source: ChEMBL document CHEMBL5465560, “Selectivity Literature for EUbOPEN Chemogenomic Library” (2024)
pIC50: −log10 of the molar value. Each block holds one molecule with its values, some of them ahead of it.

Assays:
[1] = target: T1, TGF-beta receptor type-1 (Homo sapiens) (UniProt P36897); assay: Selectivity interaction (Ambit KINOMEscan and KiNATiv profiling in Jurkat cells) EUB0000090b TGFBR1; assay type: cell-based; details: at 1 µM
T1 sequence (whole entry): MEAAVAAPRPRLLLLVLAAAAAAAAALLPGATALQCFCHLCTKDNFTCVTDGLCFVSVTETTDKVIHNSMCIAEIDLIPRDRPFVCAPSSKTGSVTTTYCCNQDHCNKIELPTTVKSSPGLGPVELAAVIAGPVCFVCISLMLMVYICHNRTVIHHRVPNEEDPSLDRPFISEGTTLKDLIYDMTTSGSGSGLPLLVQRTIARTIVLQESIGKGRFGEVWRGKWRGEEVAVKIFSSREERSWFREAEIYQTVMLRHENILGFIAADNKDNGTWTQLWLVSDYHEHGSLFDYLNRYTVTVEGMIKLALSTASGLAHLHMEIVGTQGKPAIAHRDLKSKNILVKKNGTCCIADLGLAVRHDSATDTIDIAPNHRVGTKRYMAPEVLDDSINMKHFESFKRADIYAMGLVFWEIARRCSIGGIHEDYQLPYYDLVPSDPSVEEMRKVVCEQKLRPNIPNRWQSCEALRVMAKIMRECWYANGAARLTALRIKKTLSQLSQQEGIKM

[2] = target: T2, Mitogen-activated protein kinase kinase kinase 12 (Homo sapiens) (UniProt Q12852); assay: Selectivity interaction (KinomeScan (DiscoverX)) EUB0000655a MAP3K12; details: at 10 µM
T2 sequence (whole entry): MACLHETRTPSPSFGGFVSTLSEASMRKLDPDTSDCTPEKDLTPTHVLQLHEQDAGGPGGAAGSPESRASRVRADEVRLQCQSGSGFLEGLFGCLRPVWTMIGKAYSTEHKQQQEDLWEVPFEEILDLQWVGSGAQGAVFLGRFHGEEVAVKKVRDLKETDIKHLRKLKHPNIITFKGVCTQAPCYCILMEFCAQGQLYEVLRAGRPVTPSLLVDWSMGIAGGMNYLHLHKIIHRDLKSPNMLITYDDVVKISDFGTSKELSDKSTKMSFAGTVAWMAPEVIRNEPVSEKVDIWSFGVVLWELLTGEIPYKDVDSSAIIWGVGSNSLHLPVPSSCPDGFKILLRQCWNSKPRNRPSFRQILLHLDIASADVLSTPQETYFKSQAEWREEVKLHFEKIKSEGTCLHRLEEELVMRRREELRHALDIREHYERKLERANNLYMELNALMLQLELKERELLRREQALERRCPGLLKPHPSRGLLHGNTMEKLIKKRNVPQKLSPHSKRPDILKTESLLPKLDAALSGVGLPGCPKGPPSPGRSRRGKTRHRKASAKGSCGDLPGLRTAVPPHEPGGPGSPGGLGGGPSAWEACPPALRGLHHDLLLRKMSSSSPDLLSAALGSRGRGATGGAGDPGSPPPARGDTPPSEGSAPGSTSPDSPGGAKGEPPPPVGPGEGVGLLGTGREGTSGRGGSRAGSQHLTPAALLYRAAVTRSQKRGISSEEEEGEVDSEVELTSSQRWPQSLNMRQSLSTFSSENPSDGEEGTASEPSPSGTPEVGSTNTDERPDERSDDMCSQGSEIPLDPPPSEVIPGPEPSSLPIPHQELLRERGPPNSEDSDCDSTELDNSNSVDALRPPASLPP

[3] = target: Mitogen-activated protein kinase kinase kinase 10 (Homo sapiens) (UniProt Q02779); assay: Selectivity interaction (KinomeScan (DiscoverX)) EUB0000618a MAP3K10; details: at 10 µM
[4] = target: T3, Calcium/calmodulin-dependent protein kinase type IV (Homo sapiens) (UniProt Q16566); assay: Selectivity interaction (Upstate Kinase Profiler service (Millipore)) EUB0000056c CAMK4; details: at 1 µM
T3 sequence (whole entry): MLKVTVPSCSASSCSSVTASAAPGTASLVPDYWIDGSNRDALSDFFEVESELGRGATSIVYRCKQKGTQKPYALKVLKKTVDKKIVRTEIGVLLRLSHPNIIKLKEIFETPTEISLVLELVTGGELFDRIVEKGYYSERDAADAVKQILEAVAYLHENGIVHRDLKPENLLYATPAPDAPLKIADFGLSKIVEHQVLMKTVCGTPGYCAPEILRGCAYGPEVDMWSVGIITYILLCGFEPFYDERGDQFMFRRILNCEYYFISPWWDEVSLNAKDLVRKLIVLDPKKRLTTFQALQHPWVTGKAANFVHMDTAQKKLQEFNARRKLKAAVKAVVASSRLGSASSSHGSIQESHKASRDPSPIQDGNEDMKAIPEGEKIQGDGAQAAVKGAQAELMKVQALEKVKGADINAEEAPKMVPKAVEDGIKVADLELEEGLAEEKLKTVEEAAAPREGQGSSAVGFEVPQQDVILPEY

[5] = target: Histone-lysine N-methyltransferase, H3 lysine-36 specific (Homo sapiens) (UniProt Q96L73); details: at 1 µM
[6] = target: Phosphatidylinositol 4,5-bisphosphate 3-kinase catalytic subunit alpha isoform (Homo sapiens) (UniProt P42336); details: at 10 µM
[7] = target: T4, cGMP-dependent protein kinase 2 (Homo sapiens) (UniProt Q13237); assay: Selectivity interaction (KinomeScan (DiscoverX)) EUB0000092b PRKG2; details: at 10 µM
T4 sequence (whole entry): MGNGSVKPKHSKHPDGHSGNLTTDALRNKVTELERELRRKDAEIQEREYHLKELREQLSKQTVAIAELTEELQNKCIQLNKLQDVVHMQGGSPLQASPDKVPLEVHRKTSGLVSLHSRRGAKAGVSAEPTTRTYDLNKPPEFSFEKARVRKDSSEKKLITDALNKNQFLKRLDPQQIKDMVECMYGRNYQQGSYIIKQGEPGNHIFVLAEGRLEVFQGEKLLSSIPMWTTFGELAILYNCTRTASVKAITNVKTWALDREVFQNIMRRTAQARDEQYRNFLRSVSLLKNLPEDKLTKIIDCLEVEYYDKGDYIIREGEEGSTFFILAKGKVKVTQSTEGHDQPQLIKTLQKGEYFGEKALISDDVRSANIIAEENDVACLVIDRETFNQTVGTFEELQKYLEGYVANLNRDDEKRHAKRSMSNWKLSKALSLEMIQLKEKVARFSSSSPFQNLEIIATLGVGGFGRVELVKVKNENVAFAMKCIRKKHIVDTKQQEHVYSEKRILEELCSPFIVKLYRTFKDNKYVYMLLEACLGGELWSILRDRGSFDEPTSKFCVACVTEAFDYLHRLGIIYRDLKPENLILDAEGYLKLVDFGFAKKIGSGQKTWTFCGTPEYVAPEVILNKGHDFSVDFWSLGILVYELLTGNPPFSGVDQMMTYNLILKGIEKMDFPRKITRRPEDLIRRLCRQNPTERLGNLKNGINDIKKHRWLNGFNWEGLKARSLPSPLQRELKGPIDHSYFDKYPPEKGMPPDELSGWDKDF

[8] = target: Serine/threonine-protein kinase haspin (Homo sapiens, UniProt Q8TF76); assay: Selectivity interaction (Enzymatic assay) EUB0001550a GSG2

Chain of Mitogen-activated protein kinase kinase kinase 10 (Homo sapiens) (Q02779 whole entry, looked up): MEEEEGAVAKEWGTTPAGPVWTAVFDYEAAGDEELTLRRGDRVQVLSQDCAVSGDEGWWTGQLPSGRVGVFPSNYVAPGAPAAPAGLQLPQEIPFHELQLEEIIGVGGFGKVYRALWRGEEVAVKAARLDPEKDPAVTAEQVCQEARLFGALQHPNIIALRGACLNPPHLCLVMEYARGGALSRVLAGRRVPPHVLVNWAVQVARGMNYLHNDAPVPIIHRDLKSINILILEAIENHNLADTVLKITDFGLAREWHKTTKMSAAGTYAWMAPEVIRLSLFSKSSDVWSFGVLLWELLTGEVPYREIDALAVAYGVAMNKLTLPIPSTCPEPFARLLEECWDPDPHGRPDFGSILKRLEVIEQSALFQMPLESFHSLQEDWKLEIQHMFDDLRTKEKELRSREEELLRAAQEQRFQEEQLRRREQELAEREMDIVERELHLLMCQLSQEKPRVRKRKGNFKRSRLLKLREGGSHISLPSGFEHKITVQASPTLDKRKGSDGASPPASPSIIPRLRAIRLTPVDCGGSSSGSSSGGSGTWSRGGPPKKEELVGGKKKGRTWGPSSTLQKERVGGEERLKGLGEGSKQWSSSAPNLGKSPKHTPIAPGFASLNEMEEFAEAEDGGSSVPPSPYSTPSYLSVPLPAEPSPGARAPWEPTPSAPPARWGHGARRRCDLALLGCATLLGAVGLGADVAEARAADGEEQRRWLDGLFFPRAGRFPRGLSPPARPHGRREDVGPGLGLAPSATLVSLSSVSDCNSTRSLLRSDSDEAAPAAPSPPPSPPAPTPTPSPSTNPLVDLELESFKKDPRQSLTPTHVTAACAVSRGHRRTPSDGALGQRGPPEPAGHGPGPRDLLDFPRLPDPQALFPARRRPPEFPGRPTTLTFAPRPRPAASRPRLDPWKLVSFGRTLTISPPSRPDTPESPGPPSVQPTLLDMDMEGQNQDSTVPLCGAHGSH
Chain of Histone-lysine N-methyltransferase, H3 lysine-36 specific (Homo sapiens) (Q96L73 whole entry, canonical isoform): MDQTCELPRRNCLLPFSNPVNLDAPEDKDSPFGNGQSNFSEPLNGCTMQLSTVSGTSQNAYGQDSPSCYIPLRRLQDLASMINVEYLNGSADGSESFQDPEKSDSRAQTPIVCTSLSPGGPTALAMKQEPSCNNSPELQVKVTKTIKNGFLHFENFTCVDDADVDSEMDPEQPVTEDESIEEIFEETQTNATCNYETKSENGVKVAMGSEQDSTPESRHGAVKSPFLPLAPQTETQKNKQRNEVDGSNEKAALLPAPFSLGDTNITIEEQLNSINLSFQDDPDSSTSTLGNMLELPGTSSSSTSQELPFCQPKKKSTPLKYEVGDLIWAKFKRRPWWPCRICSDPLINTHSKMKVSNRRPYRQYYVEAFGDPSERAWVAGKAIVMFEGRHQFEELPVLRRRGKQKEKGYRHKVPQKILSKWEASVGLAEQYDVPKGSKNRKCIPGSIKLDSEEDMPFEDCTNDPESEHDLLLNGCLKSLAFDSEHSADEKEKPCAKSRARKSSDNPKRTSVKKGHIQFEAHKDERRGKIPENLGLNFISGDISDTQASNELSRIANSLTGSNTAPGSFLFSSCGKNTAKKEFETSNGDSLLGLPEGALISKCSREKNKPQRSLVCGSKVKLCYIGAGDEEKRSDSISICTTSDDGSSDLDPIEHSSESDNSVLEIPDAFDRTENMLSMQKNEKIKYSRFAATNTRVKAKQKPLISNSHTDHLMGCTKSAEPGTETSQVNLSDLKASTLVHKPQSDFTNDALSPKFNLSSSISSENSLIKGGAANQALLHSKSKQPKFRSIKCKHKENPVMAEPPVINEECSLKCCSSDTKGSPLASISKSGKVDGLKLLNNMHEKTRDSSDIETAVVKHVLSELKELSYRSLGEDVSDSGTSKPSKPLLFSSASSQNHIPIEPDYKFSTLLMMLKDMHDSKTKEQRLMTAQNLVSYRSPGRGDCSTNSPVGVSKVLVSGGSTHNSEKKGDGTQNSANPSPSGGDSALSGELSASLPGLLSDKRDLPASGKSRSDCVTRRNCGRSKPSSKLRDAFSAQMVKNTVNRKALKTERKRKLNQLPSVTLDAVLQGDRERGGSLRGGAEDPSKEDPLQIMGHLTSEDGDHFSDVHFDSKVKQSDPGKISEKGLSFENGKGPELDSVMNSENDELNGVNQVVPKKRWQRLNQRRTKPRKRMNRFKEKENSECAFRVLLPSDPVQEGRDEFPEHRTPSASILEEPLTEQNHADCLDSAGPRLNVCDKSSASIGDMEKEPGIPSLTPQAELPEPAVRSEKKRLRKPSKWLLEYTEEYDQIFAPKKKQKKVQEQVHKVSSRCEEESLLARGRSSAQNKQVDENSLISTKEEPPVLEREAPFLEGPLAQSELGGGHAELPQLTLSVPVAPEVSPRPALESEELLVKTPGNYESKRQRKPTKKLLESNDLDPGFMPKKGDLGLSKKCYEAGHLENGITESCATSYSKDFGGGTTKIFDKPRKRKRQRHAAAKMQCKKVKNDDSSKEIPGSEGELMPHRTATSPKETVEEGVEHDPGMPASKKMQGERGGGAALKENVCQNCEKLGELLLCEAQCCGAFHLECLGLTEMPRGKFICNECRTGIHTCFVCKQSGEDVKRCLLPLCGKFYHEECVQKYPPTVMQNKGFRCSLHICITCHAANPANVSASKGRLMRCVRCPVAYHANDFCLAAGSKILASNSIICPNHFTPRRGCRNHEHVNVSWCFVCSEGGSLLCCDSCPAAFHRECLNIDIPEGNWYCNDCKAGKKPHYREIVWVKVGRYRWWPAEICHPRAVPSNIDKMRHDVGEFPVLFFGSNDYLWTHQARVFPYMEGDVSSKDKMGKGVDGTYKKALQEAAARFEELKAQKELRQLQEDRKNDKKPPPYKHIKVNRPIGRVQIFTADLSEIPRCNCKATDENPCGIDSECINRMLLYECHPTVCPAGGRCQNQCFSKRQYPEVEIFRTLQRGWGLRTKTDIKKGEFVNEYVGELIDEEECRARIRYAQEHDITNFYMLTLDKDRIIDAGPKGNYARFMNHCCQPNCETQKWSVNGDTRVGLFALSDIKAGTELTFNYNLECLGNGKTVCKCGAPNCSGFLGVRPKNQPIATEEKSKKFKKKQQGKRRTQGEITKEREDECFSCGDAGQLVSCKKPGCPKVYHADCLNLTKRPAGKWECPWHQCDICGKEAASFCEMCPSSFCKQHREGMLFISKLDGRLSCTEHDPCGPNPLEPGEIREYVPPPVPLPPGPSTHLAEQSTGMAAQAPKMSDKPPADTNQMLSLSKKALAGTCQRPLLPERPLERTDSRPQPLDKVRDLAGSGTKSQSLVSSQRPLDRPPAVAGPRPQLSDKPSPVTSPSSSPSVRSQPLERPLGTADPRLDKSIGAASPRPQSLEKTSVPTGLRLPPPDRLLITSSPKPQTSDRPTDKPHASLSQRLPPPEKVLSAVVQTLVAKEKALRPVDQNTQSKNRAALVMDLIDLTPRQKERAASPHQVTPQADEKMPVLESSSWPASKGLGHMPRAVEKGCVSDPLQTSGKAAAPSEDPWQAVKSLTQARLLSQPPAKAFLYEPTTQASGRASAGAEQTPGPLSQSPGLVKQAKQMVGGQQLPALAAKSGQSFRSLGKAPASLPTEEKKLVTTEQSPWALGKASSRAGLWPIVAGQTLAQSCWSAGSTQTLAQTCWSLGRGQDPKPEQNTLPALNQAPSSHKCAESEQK
Chain of Phosphatidylinositol 4,5-bisphosphate 3-kinase catalytic subunit alpha isoform (Homo sapiens) (P42336 whole entry, canonical isoform): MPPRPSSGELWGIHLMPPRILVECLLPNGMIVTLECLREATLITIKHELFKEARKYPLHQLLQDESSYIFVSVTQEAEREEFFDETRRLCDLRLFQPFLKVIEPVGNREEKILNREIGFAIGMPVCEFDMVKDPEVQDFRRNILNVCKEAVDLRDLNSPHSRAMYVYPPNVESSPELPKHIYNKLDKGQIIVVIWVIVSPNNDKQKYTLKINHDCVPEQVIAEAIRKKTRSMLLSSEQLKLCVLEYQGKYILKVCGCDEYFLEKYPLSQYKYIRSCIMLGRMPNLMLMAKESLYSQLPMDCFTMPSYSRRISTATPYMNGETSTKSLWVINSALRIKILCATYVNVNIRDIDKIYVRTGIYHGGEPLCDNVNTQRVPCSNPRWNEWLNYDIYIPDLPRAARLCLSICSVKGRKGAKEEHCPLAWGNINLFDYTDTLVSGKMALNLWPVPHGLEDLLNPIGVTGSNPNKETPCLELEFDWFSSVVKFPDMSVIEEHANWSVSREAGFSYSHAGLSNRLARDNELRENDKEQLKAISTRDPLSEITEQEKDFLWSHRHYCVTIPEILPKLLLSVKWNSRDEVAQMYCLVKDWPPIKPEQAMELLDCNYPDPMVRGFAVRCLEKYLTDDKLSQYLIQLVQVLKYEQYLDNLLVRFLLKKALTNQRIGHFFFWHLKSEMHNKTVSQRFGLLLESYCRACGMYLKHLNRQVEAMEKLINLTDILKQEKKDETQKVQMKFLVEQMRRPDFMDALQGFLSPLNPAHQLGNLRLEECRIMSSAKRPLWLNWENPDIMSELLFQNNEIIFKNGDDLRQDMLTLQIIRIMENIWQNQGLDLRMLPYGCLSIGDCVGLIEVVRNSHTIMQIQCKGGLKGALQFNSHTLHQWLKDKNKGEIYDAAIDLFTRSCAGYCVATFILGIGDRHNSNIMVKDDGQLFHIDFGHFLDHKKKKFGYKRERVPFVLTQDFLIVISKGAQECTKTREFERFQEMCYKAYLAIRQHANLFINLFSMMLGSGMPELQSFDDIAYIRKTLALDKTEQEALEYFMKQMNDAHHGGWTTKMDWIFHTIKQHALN

SMILES: CN(C)C/C=C/C(=O)Nc1ccc(C(=O)N2CCCC(Nc3ncc(Cl)c(-c4c[nH]c5ccccc45)n3)C2)cc1 (stereo not drawn)
% of control [1]: 87%

SMILES: CN(C)CCOc1ccc(-c2nc(-c3ccncc3)c(-c3ccc4c(c3)CC/C4=N\O)[nH]2)cc1
% of control [2]: 49%

SMILES: O[C@H]1CC[C@H](Nc2ncc3nc(Nc4c(F)cc(F)cc4F)n([C@H]4CCOC4)c3n2)CC1
% of control [3]: 100%

SMILES: CCC(=O)N1CCN(c2ccc(-n3c(=O)ccc4cnc5ccc(-c6cnc7ccccc7c6)cc5c43)cc2C(F)(F)F)CC1
% of control [7]: 78%

Other lines, results leading:

% of inhibition [4]: 15%
SMILES: Cc1ccc(-c2ccc3c(ccc4sc5c(c43)NC[C@@H](C)NC5=O)n2)cn1

% activity [5]: > 90%
SMILES: CNCCN1CCC(c2cc(CN(C)C(=O)c3cccc(Oc4ccccc4)c3)ccn2)CC1

% of inhibition [6]: 96%
SMILES: CCC(=O)N1CC[C@H](Nc2ncnc3c2CN(c2cnc(OC)c(C(F)(F)F)c2)CC3)C1 [LENIOLISIB]

pIC50 [8]: 5.85
SMILES: CN(C)CC#Cc1ccc2[nH]c3c(c2c1)-c1nc(N)ncc1CCC3
